Laboratory results taken from patent publication US8252843B2, “Compounds for the treatment of AIDS and other viral diseases” (Novaremed Limited, priority 2004, dated 2012).

Tests used:
PHA-activated PBMCs [1] = test: Example 10: [3H]-thymidine proliferation of PHA-activated PBMCs, compound diluted in DMSO; format: cell-based, human; details: for inhibition relative to the controls: DMSO 0.25%; for inhibitory effect on PBMCs (summary of Examples 9 and 10): 100 and 50 μg/ml (61S), 100, 50 and 25 (74S)
Procedure: (§1) Human PBMCs were prepared from a blood bank and plated out at a concentration of 10^5 cells per well in a standard 96-well plate. PHA was added to each well at a concentration of 10 μg/ml together with AV 61S or PPG-7 (both in PBS) at concentrations of 50 μg/ml, 1 μg/ml, 100 ng/ml, 1 ng/ml and 100 pg/ml respectively for AV 61S and 50 μg/ml, 1 μg/ml and 10 ng/ml for PPG-7. The cells were then incubated for 7 days. [3H]-thymidine (NET-027 Thymidine [methyl-3H] from NEN 6.7 Ci/mmol Batch 3106446) was added to each well 48 hours after plating at a concentration of 1 mCi/well; a second dose was added to each well 18 hours before the end of the experiment. The cells were then harvested and counted for 1 min./sample.
Example 9 was repeated using separately compounds AV 61S, AV 61R and AV 74S and AV 74R. In each case the test compound was diluted in DMSO to a final concentration of 0.25%. A single dose of [3H]-thymidine (NET-027 Thymidine [methyl-3H] from NEN 6.7 Ci/mmol Batch 3106446) was added to each well 18 hours before the end of the experiment.

PBMC cells = test: Toxicity against PBMC cells by Alamar Blue reagent; details: 24 h and 48 h incubation
Procedure: Human PBMC cells were obtained from a blood bank and plated out on a standard 96-well plate at a concentration of 10^5 cells/well. PHA (10 μg/ml) and AV 61S (or AV 74S) at different dilutions in DMSO of 100 μg/ml, 50 μg/ml, 25 μg/ml, 10 μg/ml and 1 μg/ml were added simultaneously to each well. The cells were incubated for 24 hours.
After 24 hours, Alamar Blue reagent was added up to 10% of the total well volume.
The controls were medium only and CsA (1 mg/1 ml EtOH).
The contents of each well were then assayed 1 hour, 3 hours and 6 hours after addition of Alamar Blue by fluorescence in the manner known to those skilled in the art to determine the viability of the PBMCs.

PHA-activated PBMCs [2] = test: Example 9: [3H]-thymidine proliferation of PHA-activated PBMCs, compound in PBS; format: cell-based, human; details: 50 μg/ml, 7 days, PHA 10 μg/ml
Procedure: as §1
The controls were medium alone and CsA (1 mg in 1 ml ethanol).

| Substance | inhibition relative to the controls (PHA-activated PBMCs [1]; 50 μg/ml) | inhibition relative to the controls (PHA-activated PBMCs [1]; 100 μg/ml) | inhibitory effect on PBMCs (summary of Examples 9 and 10) (PHA-activated PBMCs [1]) | toxicity (Alamar Blue dyeing) (PBMC cells; 100 μg/ml) | toxicity (Alamar Blue dyeing) (PBMC cells; all concentrations 1-100 μg/ml except AV 74S at 100 μg/ml) | inhibition relative to the controls (PHA-activated PBMCs [2]) |
| --- | --- | --- | --- | --- | --- | --- |
| (S) 2-N (3-O-(polypropyleneglycol)-1-propyl-4-hydroxybenzene)-3-phenylpropylamide [AV 74S] | 81% | 100% | inhibitory effect | same activity and toxicity pattern as Cyclosporine (CsA) | non-toxic effect | – |
| (S) 2-N (3-O-polypropyleneglycol)propylbenzene)-3-(4-hydroxyphenyl)propylamide [AV 61S] | about 49% | about 97% | inhibitory effect | – | – | 60% |
